Reference: paper PMC11984388, “A brain-accessible peptide modulates stroke inflammatory response and neurotoxicity by targeting BDNF-receptor TrkB-T1 specific interactome” (Theranostics, 2025)
Residues, ends and D or L forms follow the SMILES beside them. *: point of attachment. Biotin = O=C1N[C@H]2[C@H](CS[C@H]2CCCCC(=O)*)N1

Tests used:
[1] = Peptide delivery to brain cortex of undamaged animals; type: in vivo; conditions: 3 nmol/g i.v. (retro-orbital), undamaged male mice, sacrificed 30 min after; Fluorescein Avidin D (Fig S5)
Method: (§1) Vehicle (saline), Bio-TMyc or Bio-TT1Ct (3 nmol/g) were retro-orbitally injected in mice one hour after induction of photothrombotic damage or, alternatively, undamaged animals. In the first case, animals were sacrificed 5 h after damage induction while, the second group was sacrificed 30 min after peptide administration. The details of brain fixation and cryoprotection for peptide visualization and/or immunohistochemistry are provided in the Supplementary material. […]
(§2) Finally, the sa mple s were mounted in Prolong Diamond. The images were acquired using an inverted Zeiss LSM 710 laser confocal microscope (Jena, Germany) with a 40x or 63x Plan-Apochromatic oil immersion objective. Images corre spond to single se ctions and were normalized for eac h colour se para tely and process ed for presenta tion with ImageJ (NIH Image) and Fiji.
(§3) Peptide visualization and immunohistochemis tr y in brain cortex
(§4) For peptide visua liz ation in undamaged or damaged brains, animals were deeply anes thetized and intra cardially perfus ed with cold PBS and 4% paraformalde hyde in PBS. Brains were post-fixed in the sa m e fixative at 4°C for 24 h and cryoprote cted in 30% suc ros e for 48 h at 4°C. […]

[2] = Peptide detection in brain cortex after photothrombotic ischemia; type: in vivo; conditions: 3 nmol/g i.v. 1 h after damage, male and female mice sacrificed 5 h post-stroke; Fluorescein Avidin D (Fig 5C)
Method: as §1, §2, §3, §4

[3] = test system: neurons of primary cortical cultures; experiment: Neuronal viability (MTT) under NMDA excitotoxicity; type: cell-based, rat
Method: Cultures were prepared from cerebral cortex of 18-day-old Wistar rat embryos, both genders indistinctly included. Unless otherwise indicated, glial growth was inhibited after 7 days in vitro (DIVs), experimental treatments taking place after 12 DIVs. These cultures present a high percentage of neurons, combined with glial cells, mostly astrocytes. To induce excitotoxicity, cultures were incubated with NMDA (100 µM) and its co-agonist glycine (10 µM), herein denoted simply as NMDA, which induce a strong excitotoxic response in mature neurons but have no effect on astrocyte viability,[47]. When indicated, cultures were preincubated for 30 min with indicated concentrations of Tat-derived CPPs before NMDA treatment, peptides being kept in the medium along treatment. Total cell or neuronal viability assessment was established by the thiazolyl blue formazan (MTT) reduction assay. Further details are provided as Supplementary material. […]
(§5) skull for 10 min. Br ain injury encompas se s damage to vas cular endothelium, platelet activation, and subs equent microvascula r thrombotic occlus ion of the irradiate d region. The ar eas underneath this ste reotaxic position that result irradiate d ar e the prima ry motor cortex and the prima ry soma tos ens ory cortex (hindlimb and forelimb). Once completed surgery, the incision was sutured, and mice were allowed to recover.
For neuroprote ction experiments, a single dose (3 nmol/g) of peptides TMyc or TT1Ct (> 95% purity; GenScript), solubilized as 2.5 mM solutions in 0.9% NaC l, we retro-orbita lly injected 1 h af ter damage initiation. In order to improve their plas ma sta bility, thes e peptides ar e N- and C-ter modifie d by, respec tive ly, ace tyl and amide groups. Mi c e were not subje cted to other procedures before isc hemia and were naive to drug or peptide treatment. Animals were randomly allocated to the experimental groups and the resea rc hers doing the experiments were blind respec t to treatment. There was not a previous es tima tion of sa mple si z e and experiments were independently car r ied out as indicated. Twenty-four hours af ter damage induction, animals completed the beam walking test and were subs equently sa cri f i ced by cervical disloca tion to meas ure the infarc t volume, as indicated below. Be fore that, brains were se ctioned into se ri al 1-mm-thick coronal sl i ce s using a mouse brain matrix (Stoe lting, Wood Dale, IL, USA), and se ctions were completely sta ine d with 2% TTC at room temperature to visua liz e the cortical infarc ts . For immunohistochemis try, animals were deeply anes thetized 5 or 24 h af ter brain damage and intra cardially perfus ed with cold PBS and 4% paraformalde hyde in PBS as indicated below.
Primary cultures of rat cor tic al neurons to study in vitro excitotoxicity The diss ected cerebral cortices of Wis ta r rat embryos (E18), both genders included, were mechanic ally diss ociated in culture medium (Minimum Esse ntia l Me dium, ME M, Life Technologies) follow ed by se eding of the cell sus pens ion at a dens ity of 1.1x10^6 cells /ml, prepared in the sa m e medium supple me nted with 22.2 mM glucos e, 0.1 mM glutamax, 5% foetal bovine se rum (FBS), 5% donor horse se rum (HS), 100 U/ml penicillin and 100 µg/ml streptomycin. Be fore se eding, the plates were treated overnight at 37°C with 100 µg/ml poly-L-lysine and 4 µg/ml laminin. The cells were incubated at 37°C in an atmosphe re of 5% CO2 and 95% humidity. Generally, glial growth was inhibited af ter 7 days in vitro (DIV s) by adding 10 µM 5 cytos ine β-D-arabinofuranos ide (AraC) and experimental treatments took place af ter 12 DIVs. Excitotoxicity was induced by incubation with NM DA (100 µM) and glycine (10 µM) for the indicated times. As indicated, cultures were preincubated with Tat-derived CP P s before […]
Mi c e had to walk through a narrow beam (1 m × 1 cm × 1 cm) placed 50 cm above the tabletop, going from an aversive stimulus (60-W light bulb) to a black goal box with nes ting material. […]

[4] = Infarct volume after photothrombotic permanent ischemia; type: in vivo, mice; conditions: 24 h, TTC, relative to hemisphere volume
Method: Permanent focal ischemia was induced in cerebral cortex of adult male and female mice by microvascular photothrombosis as described with modifications. Brain injury involves vascular endothelium damage and platelet activation, followed by microvascular thrombotic occlusion of a particular region selected for illumination using a stereotaxic frame. Coordinates were +0.2 AP, +2 ML relative to Bregma and damaged area corresponded to primary motor and somatosensory cortex. For neuroprotection, a single dose (3 nmol/g) of peptides TMyc or TT1Ct (see below) was administered 1 h after damage initiation. Further details of the procedures, including measurement of infarct volume and evaluation of motor coordination and balance, are detailed as Supplementary material.
Antibodies, chemica ls and recombinant proteins, cell-penetrating peptides , prime rs , commercial as says , experimental models, recombinant DNAs and software ar e des cribe d in the Table S1, included as Supplementary material.
Animal procedures were performed follow ing Europea n Union Directive 2010/63/ EU and were approved by the CS I C and Comunidad de Ma drid (Ref PROEX 276.6/20) ethics committees.
Hous ing facilities were approved by Comunidad de Ma drid (#ES 280790000188) and conform to official regulations. Animals had sta ndard health and immune sta tus and were looked af ter by profes sional caretake rs daily. Ma l e and female mice were kept in groups of up to five in sta ndard IVC cage s while 1–2 pregnant rats occupied sta ndard cage s, always containing bedding and nes ting materials. Animals were under controlled lighting conditions (12 h light cycles ), relative humidity and temperature. Irradiated food and water were provided ad libitum.
We trie d to minimiz e animal suffering and reduce the number of sa cri f i ced animals .
Mi c e model of isc he mia by microv ascular photothr ombosis to study in vivo excitotoxicity This model of permanent focal isc hemia mimics embolic or thrombotic occlus ion of sm a ll ar ter ie s, which is freque ntly found in human stroke, and caus es a focal brain damage with histological and MR I corre lations to human patterns. The procedure was as previously des cribe d with some modific ations . Ma l e and female Ba lb/c OlaHsd mice (23–31 g; 10–16 weeks of age; Envigo Rms , Spain S.L.) were allowed to acc limatize to our facilities for at least 1 week af ter delivery, before isc hemic induction. They were kept with the sa m e cage mates, and daily examined to chec k their health sta tus . Mi c e were anes thetized with isoflurane (5% for induction, 2% for maintenance in oxygen; Abbot Labora tories , Ma drid, Spain) and then placed in a ste reotaxic frame (Naris hige Group, Tokyo, Ja pan). Body temperature was maintained at 36–37°C using a se l f-regulating heating blanket (Cibertec, Ma drid, Spain). A midline sc al p incision was made, the skull was expos ed, and both Bregma and Lambda points were identifie d.
A cold- light (Sc hott KL 2500 LCD; Schott Glas s, Ma inz, Germany) with a fibre optic bundle of 1.5 mm in diameter was centred using a micromanipula tor on the right side , at 0.2 mm anterior and 2.0 mm lateral (+0.2 AP, +2 ML ) relative to Bregma. […] Five minutes later, the brain was illumina ted (600 lms, 3,000 K) through the intact […]
as §5, with “recover. […]” for “recover.”

[5] = Beam walking test after photothrombotic ischemia; type: in vivo, mice; conditions: contralateral hind paw slips, beam walking 24 h after insult, 3 nmol/g i.v. 1 h after damage, mean ± SEM, n = 10-12

Which results are given for `CC[C@H](C)[C@H](NC(=O)[C@H](CCCCN)NC(=O)[C@H](Cc1c[nH]cn1)NC(=O)[C@H](Cc1ccccc1)NC(=O)[C@H](CC(C)C)NC(=O)[C@@H](NC(=O)[C@H](Cc1ccccc1)NC(=O)[C@@H]1CCCN1C(=O)[C@@H]1CCCN1C(=O)[C@H](CCCNC(=N)N)NC(=O)[C@H](CCCNC(=N)N)NC(=O)[C@H](CCCNC(=N)N)NC(=O)[C@H](CCC(N)=O)NC(=O)[C@H](CCCNC(=N)N)NC(=O)[C@H](CCCNC(=N)N)NC(=O)[C@H](CCCCN)NC(=O)[C@H](CCCCN)NC(=O)[C@H](CCCNC(=N)N)NC(=O)CNC(=O)[C@H](Cc1ccc(O)cc1)NC(=O)CCCC[C@@H]1SC[C@@H]2NC(=O)N[C@@H]21)C(C)C)C(=O)N1CCC[C@H]1C(=O)N[C@@H](CC(C)C)C(=O)N[C@@H](CC(=O)O)C(=O)NCC(N)=O` [Bio-TT1Ct] (Biotin-YGRKKRRQRRRPPFVLFHKIPLDG-NH2)?
Crossing of the BBB and delivery to cortical cells [1]: able to cross the BBB and efficiently reach most cortical cells in 30 min; Time of peptide detection in brain cortex after administration [2]: at least 4 h

Which Neuronal viability ([3]; CPPs 0: peptide and NMDA (100 µM) at the same time, viability after 4 h of excitotoxicity, relative to untreated cells (100%), mean, n = 4-8 (Fig S4)) does the source give for “Ac-YGRKKRRQRRRAEEQKLISEEDLLR-NH2 [TMyc, reference compound]” here?
Its Neuronal viability is 36%.

What about the Neuronal viability ([3]; CPPs 30: peptide added 30' post-NMDA (100 µM), viability after 4 h of excitotoxicity, relative to untreated cells (100%), mean, n = 4-8 (Fig S4)) of the same compound?
The Neuronal viability was 37%.

And the Neuronal viability ([3]; CPPs 60: peptide added 60' post-NMDA (100 µM), viability after 4 h of excitotoxicity, relative to untreated cells (100%), mean, n = 4-8 (Fig S4))?
The Neuronal viability was 37%.

And the Neuronal viability ([3]; dose-response experiment (Fig 3B): peptide 15 µM preincubated 30 min, NMDA 2 h, mean ± SEM, n = 8)?
The Neuronal viability was 13 ± 9%.

What about the “Infarct volume (%)” value ([4]; female mice, 3 nmol/g i.v. 1 h after damage, mean, n = 9-10) of the same compound?
Its value is 15 ± 2%.

And the “Infarct volume (%)” value ([4]; male + female mice, 3 nmol/g i.v. 1 h after damage induction, mean ± SEM, n = 19, n = 20)?
The value was 17 ± 2%.

What about the “Infarct volume (%)” value ([4]; male mice, 3 nmol/g i.v. 1 h after damage, mean, n = 9-10) of the same compound?
Its value is 20 ± 1%.

What about the Number of slips ([5]; female mice) of the same compound?
The Number of slips was 5 ± 1.

What about the Number of slips ([5]; male mice) of the same compound?
The Number of slips was 10 ± 1.
